# Experimental data as given in PubChem BioAssay (NCI).
#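 Step 1: Grow cells in 96-well plates. Step 2: Expose to compound for 48 hours at 5 concentrations. Step 3: Interpolate endpoints linearly; if unreached, use highest concentration. Abbreviation: GI50, concentration required for 50% inhibition of growth. TGI: concentration producing complete growth inhibition.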
# Key:
# Assay in all cases: inhibition of tumour cell growth, NCI panel, 48 h
# 786-0 renal = tested on: 786-0 renal
# MCF7 breast = tested on: MCF7 breast
# DU-145 prostate = tested on: DU-145 prostate
# SK-MEL-5 melanoma = tested on: SK-MEL-5 melanoma
# NCI/ADR-RES ovarian = tested on: NCI/ADR-RES ovarian
# UO-31 renal = tested on: UO-31 renal
# HCC-2998 colon = tested on: HCC-2998 colon
# KM12 colon = tested on: KM12 colon
# SK-OV-3 ovarian = tested on: SK-OV-3 ovarian
# EKVX NSCLC = tested on: EKVX NSCLC
Structure (SMILES),GI50 (786-0 renal),TGI (786-0 renal),GI50 (MCF7 breast),TGI (MCF7 breast),GI50 (DU-145 prostate),GI50 (SK-MEL-5 melanoma),TGI (SK-MEL-5 melanoma),GI50 (NCI/ADR-RES ovarian),TGI (NCI/ADR-RES ovarian),GI50 (UO-31 renal),TGI (UO-31 renal),GI50 (HCC-2998 colon),TGI (HCC-2998 colon),GI50 (KM12 colon),TGI (KM12 colon),GI50 (SK-OV-3 ovarian),TGI (SK-OV-3 ovarian),GI50 (EKVX NSCLC),TGI (EKVX NSCLC),TGI (DU-145 prostate)
COC(=O)[C@@H](C)C[C@H](Cc1cn(C)c2ccccc12)NC(=O)c1csc([C@@H](C[C@H](C(C)C)N(C)C(=O)[C@@H](NC(=O)[C@H]2CCCCN2C)C(C)C)OC(C)=O)n1,0.0545 µM,> 13 µM,0.00524 µM,> 16.7 µM,0.00811 µM,0.00595 µM,0.252 µM,0.417 µM,> 16.7 µM,0.169 µM,> 16.7 µM,0.0925 µM,> 16.7 µM,0.0108 µM,> 16.7 µM,0.0602 µM,> 16.7 µM,0.044 µM,> 16.7 µM,–
CCOC(=O)c1ccccc1OC(=O)NNc1ccccc1,1.18 µM,> 100 µM,8.14 µM,> 100 µM,> 48.5 µM,1.43 µM,> 33.2 µM,3.8 µM,> 100 µM,0.535 µM,> 100 µM,0.583 µM,–,0.173 µM,> 56.4 µM,> 79.9 µM,> 100 µM,6.07 µM,> 100 µM,> 100 µM
CCN(CC)CCNc1ccc(C)c2sc3cc(Cl)ccc3c(=O)c12,1.66 µM,3.1 µM,1.55 µM,3.2 µM,1.78 µM,1.68 µM,3.07 µM,1.62 µM,3.23 µM,1.32 µM,2.69 µM,1.75 µM,3.58 µM,1.75 µM,3.26 µM,1.77 µM,4.88 µM,1.47 µM,3.1 µM,3.17 µM
NS(=O)(=O)OCC1OC(n2cnc3cncnc32)C(O)C1O (stereo not drawn),0.0228 µM,0.0693 µM,0.0185 µM,0.0806 µM,0.0178 µM,0.0402 µM,0.144 µM,0.0103 µM,0.0503 µM,0.0256 µM,0.106 µM,0.0312 µM,0.097 µM,0.0179 µM,0.0522 µM,0.0343 µM,0.137 µM,0.064 µM,0.647 µM,0.132 µM
CC12OOC(c3ccccc31)c1c2ccc2ccccc12 (stereo not drawn),–,22.3 µM,–,32.4 µM,–,–,21.6 µM,–,24.1 µM,–,23.2 µM,–,16.2 µM,–,7.43 µM,–,34.3 µM,–,18.7 µM,32.4 µM
COC1C(CO)OC(n2c3ccccc3c3c4c(c5c6ccccc6[nH]c5c32)C(=O)NC4=O)C(O)C1O (stereo not drawn),0.0467 µM,1.12 µM,0.0336 µM,2.07 µM,0.0439 µM,0.0133 µM,0.0608 µM,1.37 µM,> 43.7 µM,0.173 µM,0.676 µM,0.127 µM,1.5 µM,0.0176 µM,0.55 µM,0.0876 µM,2.22 µM,0.326 µM,2.34 µM,0.572 µM
COc1cc2nccc(Oc3ccc(NC(=O)NC4CC4)c(Cl)c3)c2cc1C(N)=O,13.4 µM,37.7 µM,36.2 µM,> 100 µM,21.6 µM,40 µM,> 100 µM,35.2 µM,> 100 µM,5.55 µM,> 100 µM,> 100 µM,> 100 µM,5.5 µM,> 100 µM,17.5 µM,94.6 µM,26.1 µM,> 100 µM,> 100 µM
O=C(COc1ccc(/C=C2\COc3ccccc3C2=O)cc1)Nc1nccs1,13.9 µM,28.1 µM,3.92 µM,14.2 µM,4.8 µM,12.8 µM,26.7 µM,24.7 µM,> 100 µM,11.9 µM,25.5 µM,0.828 µM,3.26 µM,3.28 µM,10.5 µM,30.9 µM,69.5 µM,22.4 µM,76.3 µM,14.8 µM
CCOC(=O)[C@@H](C)C[C@H](Cc1ccccc1)NC(=O)c1nc([C@@H](C[C@H](C(C)C)N(C)C(=O)[C@@H](NC(=O)[C@H]2CCCCN2C)C(C)C)OC(C)=O)sc1CCOCc1ccccc1,0.08 µM,1.59 µM,0.0404 µM,4.33 µM,0.0404 µM,0.05 µM,0.38 µM,0.503 µM,3.98 µM,0.586 µM,2.24 µM,0.119 µM,1.13 µM,0.0442 µM,1.48 µM,0.0188 µM,> 11.1 µM,0.314 µM,> 11.1 µM,1.08 µM
O=C(c1ccco1)c1nc2cc(C(F)(F)F)ccc2nc1C(F)(F)F,> 100 µM,> 100 µM,40.6 µM,> 100 µM,> 100 µM,> 100 µM,> 100 µM,> 100 µM,> 100 µM,> 100 µM,> 100 µM,> 100 µM,> 100 µM,> 100 µM,> 100 µM,> 100 µM,> 100 µM,> 100 µM,> 100 µM,> 100 µM
CCCCCCCC/C=C/CCCCCCCC1=NC(C)(C)CN1CC(C)O (stereo not drawn),1.71 µM,3.16 µM,1.85 µM,3.62 µM,1.71 µM,6.39 µM,16.9 µM,2.68 µM,6.9 µM,1.63 µM,4.19 µM,4.68 µM,9.45 µM,1.99 µM,3.98 µM,7.64 µM,21.1 µM,4.84 µM,18.2 µM,3.09 µM
COc1ccc(C(=O)Nc2ncc(Cc3cccc(Cl)c3)s2)cc1OC,1.33 µM,> 100 µM,0.36 µM,> 100 µM,1.88 µM,0.247 µM,11.1 µM,0.398 µM,> 100 µM,0.953 µM,> 100 µM,0.134 µM,> 44.1 µM,0.0547 µM,> 100 µM,3.59 µM,> 100 µM,0.693 µM,> 100 µM,> 100 µM
